Measurements reported in ChEMBL document CHEMBL5523737, “Novel Jatrophane Diterpenoids from Euphorbia esula Promotes Lipid Clearance by Transcriptional Regulation of PCSK9” (J Med Chem, 2024).
Activity calls are given as the source filed them. The rule behind the calls is not given here.

How the values were obtained:
[1] = molecular target: Proprotein convertase subtilisin/kexin type 9 (Homo sapiens) (UniProt Q8NBP7); test: Inhibition of PCSK9 transcription in human HepG2 cells at 5 uM by AlphaLISA method; type: cell-based
[2] = molecular target: Proprotein convertase subtilisin/kexin type 9 (Homo sapiens) (UniProt Q8NBP7); test: Inhibition of PCSK9 transcription in human HepG2 cells by AlphaLISA method; type: cell-based
[3] = Cytotoxicity against human HepG2 cells assessed as cell viability at 20 uM after 24 hrs by CCK8 assay; type: toxicity, cell-based; settings: read-out: Activity
HepG2 [4] = test: Induction of LDL uptake in human HepG2 cells incubated for 3 hrs under dark condition by DiI-LDL DMEM staining based fluorescence microplate reader assay; type: functional, cell-based
[5] = Effect on HEK293 cell viability at 20 uM; type: toxicity, cell-based; settings: human, hek293, 20 µM
HepG2 [6] = test: Induction of LDL uptake in human PCSK9 knockdown HepG2 cells at 5 uM incubated for 3 hrs under dark condition by DiI-LDL DMEM staining based fluorescence microplate reader assay; type: functional, cell-based
[7] = Hepatotoxicity in HFD induced C57BL/6 mouse assessed as decrease in serum AST level at 10 to 30 mg/kg, ip administered for 3 weeks; type: toxicity, organism-based; settings: in vivo, 504 h, dose 10-30 mg/kg
HepG2 [8] = test: Downregulation of PCSK9 mRNA level in human HepG2 cells by qRT-PCR analysis; type: functional, cell-based; settings: dose 1-20 µM
HepG2 [9] = test: Inhibition of HNF1alpha nuclear transport in human HepG2 cells at 1 to 10 uM after 24 hrs by Western blotting analysis; type: functional, cell-based; settings: dose 1-10 µM
HepG2 [10] = test: Downregulation of PCSK9 protein level in human HepG2 cells at 5 uM after 3 hrs by Western blotting analysis; type: functional, cell-based
[11] = Hepatotoxicity in HFD induced C57BL/6 mouse assessed as decrease in serum ALT level at 10 to 30 mg/kg, ip administered for 3 weeks; type: toxicity, organism-based; settings: in vivo, 504 h, dose 10-30 mg/kg
[12] = molecular target: Proprotein convertase subtilisin/kexin type 9 (Homo sapiens) (UniProt Q8NBP7); test: Inhibition of PCSK9 (unknown origin) promoter activity expressed in HNF1alpha knockdown HEK293 cells co-transfected with SV40 incubated for 24 hrs by dual luciferase assay; type: cell-based
Hepatocyte [13] = test: Downregulation of PCSK9 protein level in HFD treated mouse hepatocytes at 5 to 20 uM incubated for 24 hrs by Western blotting analysis; type: functional, cell-based; settings: dose 5-20 µM
[14] = molecular target: Proprotein convertase subtilisin/kexin type 9 (Homo sapiens) (UniProt Q8NBP7); test: Inhibition of PCSK9 (unknown origin) promoter activity expressed in HNF1alpha overexpressed HEK293 cells co-transfected with SV40 incubated for 24 hrs by dual luciferase assay; type: cell-based
Mus musculus [15] = test: Hypolipidemic activity in HFD induced C57BL/6 mouse assessed as reduction in serum LDL-C level at 10 to 30 mg/kg, ip administered for 3 weeks; type: functional, organism-based; settings: dose 10-30 mg/kg
HepG2 [16] = test: Upregulation of LDLR protein level in human HepG2 cells at 5 uM after 6 hrs by Western blotting analysis; type: functional, cell-based
[17] = Hepatotoxicity in HFD induced C57BL/6 mouse assessed as decrease in liver index at 10 to 30 mg/kg, ip administered for 3 weeks; type: toxicity, organism-based; settings: in vivo, 504 h, dose 10-30 mg/kg
HepG2 [18] = test: Effect on HNF1alpha protein level in human HepG2 cells at 5 uM incubated for 24 hrs by Western blotting analysis; type: functional, cell-based
HepG2 [19] = test: Induction of LDL uptake in human LDLR knockdown HepG2 cells at 5 uM incubated for 3 hrs under dark condition by DiI-LDL DMEM staining based fluorescence microplate reader assay; type: functional, cell-based
Mus musculus [20] = test: Hypolipidemic activity in HFD induced C57BL/6 mouse assessed as reduction in serum TC level at 10 to 30 mg/kg, ip administered for 3 weeks; type: functional, organism-based; settings: dose 10-30 mg/kg
HepG2 [21] = test: Upregulation of LDLR mRNA level in HNF1alpha knockdown human HepG2 cells incubated for 24 hrs by qRT-PCR analysis; type: functional, cell-based
[22] = Nephrotoxicity in HFD induced C57BL/6 mouse assessed as change in serum UREA level at 10 to 30 mg/kg, ip administered for 3 weeks; type: toxicity, organism-based; settings: in vivo, 504 h, dose 10-30 mg/kg
Hepatocyte [23] = test: Downregulation of PCSK9 mRNA level in HFD treated mouse hepatocytes at 5 to 20 uM incubated for 24 hrs by qRT-PCR analysis; type: functional, cell-based; settings: dose 5-20 µM
[24] = molecular target: Proprotein convertase subtilisin/kexin type 9 (Homo sapiens) (UniProt Q8NBP7); test: Inhibition of PCSK9 (unknown origin) promoter activity expressed in HEK293 cells co-transfected with SV40 incubated for 24 hrs by dual luciferase assay; type: cell-based; settings: dose 1-20 µM
Mus musculus [25] = test: Upregulation of […] protein level in HFD induced C57BL/6 mouse liver at 10 to 30 mg/kg, ip administered for 3 weeks by Western blotting analysis; type: functional, organism-based; settings: dose 10-30 mg/kg
Mus musculus [26] = test: Hypolipidemic activity in HFD induced C57BL/6 mouse assessed as reduction in serum VLDL-C level at 10 to 30 mg/kg, ip administered for 3 weeks; type: functional, organism-based; settings: dose 10-30 mg/kg
HepG2 [27] = test: Upregulation of LDLR protein level in HNF1alpha knockdown human HepG2 cells at 10 uM incubated for 24 hrs by Western blotting analysis; type: functional, cell-based
Mus musculus [28] = test: Downregulation of PCSK9 protein level in HFD induced C57BL/6 mouse liver at 10 to 30 mg/kg, ip administered for 3 weeks by Western blotting analysis; type: functional, organism-based; settings: dose 10-30 mg/kg
[29] = Toxicity in HFD induced C57BL/6 mouse assessed as change in food intake at 10 to 30 mg/kg, ip administered for 3 weeks; type: organism-based; settings: in vivo, 504 h, dose 10-30 mg/kg
HepG2 [30] = test: Upregulation of LDLR protein level in human HepG2 cells by Western blotting analysis; type: functional, cell-based
HepG2 [31] = test: Downregulation of PCSK9 protein level in HNF1alpha knockdown human HepG2 cells at 10 uM incubated for 24 hrs by Western blotting analysis; type: functional, cell-based
HepG2 [32] = test: Downregulation of PCSK9 mRNA level in HNF1alpha knockdown human HepG2 cells incubated for 24 hrs by qRT-PCR analysis; type: functional, cell-based
HepG2 [33] = test: Upregulation of LDLR mRNA level in human HepG2 cells by qRT-PCR analysis; type: functional, cell-based
HepG2 [34] = test: Downregulation of PCSK9 protein level in human HepG2 cells by Western blotting analysis; type: functional, cell-based; settings: dose 1-20 µM
[35] = molecular target: Hepatocyte nuclear factor 1-alpha (Homo sapiens) (UniProt P20823); test: Binding affinity to HNF1alpha in human HepG2 cells assessed as increase in thermal stability at 10 uM after 1 hr by CETSA; type: cell-based
Mus musculus [36] = test: Hypolipidemic activity in HFD induced C57BL/6 mouse assessed as reduction in serum TG level at 10 to 30 mg/kg, ip administered for 3 weeks; type: functional, organism-based; settings: dose 10-30 mg/kg
HepG2 [37] = test: Induction of LDL uptake in HNF1alpha knockdown human HepG2 cells at 5 uM incubated for 3 hrs under dark condition by DiI-LDL DMEM staining based fluorescence microplate reader assay; type: functional, cell-based
[38] = Nephrotoxicity in HFD induced C57BL/6 mouse assessed as change in serum CREA level at 10 to 30 mg/kg, ip administered for 3 weeks; type: toxicity, organism-based; settings: in vivo, 504 h, dose 10-30 mg/kg
[39] = molecular target: Proprotein convertase subtilisin/kexin type 9 (Homo sapiens) (UniProt Q8NBP7); test: Inhibition of PCSK9 (unknown origin) promoter activity expressed in HEK293 cells co-transfected with SV40 at 5 to 10 uM incubated for 24 hrs by dual luciferase assay; type: cell-based; settings: dose 5-10 µM

Sequence of Hepatocyte nuclear factor 1-alpha (Homo sapiens) (P20823 whole entry): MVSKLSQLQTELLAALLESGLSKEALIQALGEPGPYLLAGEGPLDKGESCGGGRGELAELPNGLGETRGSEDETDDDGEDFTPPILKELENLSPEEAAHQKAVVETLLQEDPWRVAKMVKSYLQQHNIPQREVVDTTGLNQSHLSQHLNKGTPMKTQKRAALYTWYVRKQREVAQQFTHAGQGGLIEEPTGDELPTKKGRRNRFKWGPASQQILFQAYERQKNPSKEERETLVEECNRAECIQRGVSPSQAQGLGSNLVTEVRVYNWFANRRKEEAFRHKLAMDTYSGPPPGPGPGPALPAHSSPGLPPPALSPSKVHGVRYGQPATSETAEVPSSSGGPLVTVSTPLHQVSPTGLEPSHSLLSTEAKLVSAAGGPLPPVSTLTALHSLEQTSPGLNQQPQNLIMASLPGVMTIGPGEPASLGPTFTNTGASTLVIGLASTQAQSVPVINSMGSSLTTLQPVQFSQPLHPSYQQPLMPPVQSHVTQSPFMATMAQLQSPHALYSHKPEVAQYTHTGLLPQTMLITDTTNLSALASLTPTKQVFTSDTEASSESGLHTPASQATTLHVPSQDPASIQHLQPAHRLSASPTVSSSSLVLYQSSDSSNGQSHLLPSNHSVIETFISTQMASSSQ

C=C1[C@@H](OC(C)=O)[C@H]2[C@@H](OC(C)=O)[C@@H](C)C[C@]2(OC(C)=O)C(=O)[C@H](C)/C=C/C(C)(C)[C@H](O)C[C@H]1OC(=O)C(C)C
inhibition [1]: 5.7%

C=C1[C@@H](OC(C)=O)[C@H]2[C@@H](OC(C)=O)[C@@H](C)C[C@]2(OC(C)=O)C(=O)[C@H](C)/C=C/C(C)(C)[C@H](OC(C)=O)[C@@H](OC(C)=O)[C@H]1OC(C)=O
inhibition [1]: 0.1%

C=C1[C@@H](OC(C)=O)[C@H]2[C@@H](OC(C)=O)[C@](C)(OC(C)=O)C[C@]2(OC(C)=O)C(=O)[C@H](C)/C=C/C(C)(C)C(=O)[C@@H](OC(=O)C(C)C)[C@H]1OC(=O)CC
inhibition [2]: Dose-Dependent Effect | viability at 24 h, 20 µM [3]: > 95% | inhibition [1]: 28% | Activity (HepG2 [4]): Active

C=C1[C@@H](OC(C)=O)[C@H]2[C@@H](OC(C)=O)[C@](C)(OC(C)=O)C[C@]2(OC(C)=O)C(=O)[C@H](C)/C=C/C(C)(C)C(=O)[C@@H](OC(=O)C(C)C)[C@H]1OC(=O)C(C)C
inhibition [2]: Dose-Dependent Effect | viability at 24 h, 20 µM [3]: > 95% | inhibition [1]: 30.4% | Activity (HepG2 [4]): Active

C=C1[C@@H](OC(C)=O)[C@H]2[C@@H](OC(C)=O)[C@@H](C)C[C@]2(OC(C)=O)C(=O)[C@H](C)/C=C/C(C)(C)C(=O)C[C@H]1OC(C)=O
Activity [5]: Non-Toxic | Activity (HepG2 [6]): Active | Activity [7]: Toxic | Activity (HepG2 [8]): Dose-Dependent Effect | inhibition (HepG2 [9]): Active | Activity (HepG2 [10]): Active | Activity [11]: Non-Toxic | inhibition [12]: inactive | Activity (Hepatocyte [13]): Active | inhibition [14]: Active | Activity (Mus musculus [15]): Active | Activity (HepG2 [16]): Active | Activity [17]: Toxic | Activity (HepG2 [18]): inactive | Activity (HepG2 [19]): inactive | Activity (Mus musculus [20]): Active | inhibition [2]: Dose-Dependent Effect | viability at 24 h, 20 µM [3]: > 95% | Activity (HepG2 [21]): inactive | Activity [22]: Non-Toxic | Activity (Hepatocyte [23]): Active | inhibition [24]: Dose-Dependent Effect | inhibition [1]: 36.4% | Activity (Mus musculus [25]): Active | Activity (Mus musculus [26]): Active | Activity (HepG2 [27]): inactive | Activity (Mus musculus [28]): Active | Activity (HepG2 [4]): Dose-Dependent Effect | Activity [29]: Non-Toxic | Activity (HepG2 [30]): Dose-Dependent Effect | Activity (HepG2 [31]): inactive | Activity (HepG2 [32]): inactive | Activity (HepG2 [33]): Dose-Dependent Effect | Activity (HepG2 [34]): Dose-Dependent Effect | Activity [35]: Active | Activity (Mus musculus [36]): Active | Activity (HepG2 [37]): inactive | Activity [38]: Non-Toxic

C=C1[C@@H](OC(C)=O)[C@H]2[C@@H](OC(=O)[C@@H](C)CC)[C@@H](C)C[C@]2(OC(C)=O)C(=O)[C@H](C)/C=C/C(C)(C)[C@H](OC(C)=O)[C@@H](OC(C)=O)[C@H]1OC(C)=O
inhibition [2]: Dose-Dependent Effect | viability at 24 h, 20 µM [3]: > 95% | inhibition [1]: 56.1% | Activity (HepG2 [4]): Active | inhibition [39]: Active | Activity (HepG2 [37]): Active

C=C1[C@@H](OC(C)=O)[C@H]2[C@@H](OC(C)=O)[C@@H](C)C[C@]2(OC(C)=O)C(=O)[C@H](C)/C=C/C(C)(C)C(=O)C[C@H]1OC(=O)C(C)C
inhibition [2]: Dose-Dependent Effect | viability at 24 h, 20 µM [3]: > 95% | inhibition [1]: 35.7% | Activity (HepG2 [4]): Active
